According to patent publication US11639384B2, “Treatment of pediatric BCP-ALL patients with an anti-KIR antibody” (UNIVERSITY CHILDREN'S HOSPITAL TÜBINGEN, priority 2014, dated 2023):
Entries after “also recorded” stand apart in the source; their conditions may differ. Like-named read-outs stand apart in the source and are kept apart here.

Tests used:
KIR2DL2/3 [1] = assay: KIR receptor occupancy on cells from KIR2DL2/3+ patients; type: in vivo, human
AML [2] = assay: Phase 1 overall survival of AML patients; type: in vivo, human; details: 1 and 3 mg/kg
KIR receptor = details: cited from earlier work
AML [3] = details: cited from earlier work
[4] = test system: HLA-Cw3+ and HLA-Cw4+ targets; details: cited from earlier work
KIR2DL1 and KIR2DL2/3 [5] = details: literature and WO 2006/003179; cited from earlier work
KIR2DS4 = KIR2DS4 (Homo sapiens, UniProt P43632); details: cited from earlier work
Chain of KIR2DS4 (P43632 22-304): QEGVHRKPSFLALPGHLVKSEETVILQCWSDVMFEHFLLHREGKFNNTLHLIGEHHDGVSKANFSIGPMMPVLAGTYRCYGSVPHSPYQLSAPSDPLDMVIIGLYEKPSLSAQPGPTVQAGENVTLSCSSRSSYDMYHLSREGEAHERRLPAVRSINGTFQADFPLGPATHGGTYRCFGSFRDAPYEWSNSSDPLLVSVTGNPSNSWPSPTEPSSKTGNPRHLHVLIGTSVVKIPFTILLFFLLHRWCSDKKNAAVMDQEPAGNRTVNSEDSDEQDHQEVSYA

KIR2DS3 = KIR2DS3 (Homo sapiens, UniProt Q14952); details: cited from earlier work
Chain of KIR2DS3 (Q14952 22-304): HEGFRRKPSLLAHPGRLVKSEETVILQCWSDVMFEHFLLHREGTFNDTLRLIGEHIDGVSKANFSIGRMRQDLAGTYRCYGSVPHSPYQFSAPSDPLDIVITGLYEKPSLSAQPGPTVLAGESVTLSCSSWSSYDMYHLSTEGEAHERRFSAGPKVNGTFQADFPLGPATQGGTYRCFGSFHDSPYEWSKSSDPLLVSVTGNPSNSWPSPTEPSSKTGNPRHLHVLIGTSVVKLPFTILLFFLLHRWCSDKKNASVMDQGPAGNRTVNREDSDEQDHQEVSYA

KIR2DS1 and KIR2DS2 = details: cited from earlier work
KIR2DL2/3 [6] = details: cited from earlier work
[7] = WO 2006/003179; cited from earlier work
CD45+ cells = assay: In vivo treatment with 5-aza-cytidine: BM cytotoxicity; details: low-dose, long-term treatment; huNSG and non-humanized control mice
BM-derived NK cells = assay: In vivo treatment with 5-aza-cytidine: NK cell phenotype and subsets in BM; set-up: species or system huNSG mice
[8] = Troetel et al., 1972; cited from earlier work
pediatric BCP-ALL = assay: In vivo treatment with 5-aza-cytidine: leukemic burden in BM; details: non-humanized control NSG mice, low-dose regimen
KIR2DL1 and KIR2DL2/3 [9] = assay: KIR binding specificity of anti-KIR mAbs: inhibitory KIR2DL; set-up: species or system human
NALM-16 cells = assay: In vitro cytotoxicity of sorted KIR+ NKAES cells with KIR blockade; type: cell-based; details: 15 μg/ml, NALM-16, E:T ratio 2:1
Protocol: Target cells or cell lines were labeled with 0.5 μM CFSE (Vybrant CFDA SE Cell Tracer Kit®, Invitrogen, Germany) 1 day prior to use. NKAES cells were thawed, cultivated overnight and subsequently sorted into KIR^+ and KIR^− subsets following labeling with anti-CD158a (clone HP3E4 recognizing KIR2DL1/S1/S4), anti-CD158b (clone GL183 recognizing KIR2DL2/S2/L3) and anti-CD158e (clone DX9 recognizing 3DL1). KIR^+ and KIR^− NK cells were used as effector cells and cultured overnight in the presence of 100 IU/ml IL2. Co-incubation with NALM-16 cells was performed in triplicates at ratios between 10:1 and 2:1 for 5 h. Following staining with ARD-Ax350, cells were washed and analyzed. To correct for spontaneously occurring cell death, target cell monoculture controls were included in every experiment. The percentage of specific cytotoxicity was calculated as follows: (% CFSE^+ARD^+ dead targets−% CFSE^+ARD^+ spontaneously dead targets)/(100−% CFSE^+ ARD^+ spontaneously dead targets)×100%.
In vitro cytotoxicity was assayed as described in Example 1. […] Following staining with ARD-Ax350, cells were washed and analyzed.

inhibitory KIR = assay: Lirilumab treatment of huNSG mice: inhibitory KIR expression; type: in vivo; details: 250 μg/mouse, preliminary data
Protocol: HuNSG mice were treated 14 days before the injection of leukemia cells with a complex of IL15/IL15Ra. One day prior to blasts injection, NK cells were additionally activated by intravenous injection of polyI:C and IPH2102. On the following day blasts were injected, and after 24 h the extent of tumor burden was quantified using 8-11 color flow cytometry.

BCP-ALL sample P23T = assay: Lirilumab in NSG mice with adoptively transferred KIR-KIRL-matched NK cells: tumor burden; type: in vivo; details: P23T blasts, KIR-KIRL-matched activated NK cells, 2250 μg/mouse i.v., 24 h, preliminary data
Protocol: Naïve NSG mice were injected with blasts, followed by the injection of activated NK cells and subsequent intravenous injection of IPH2102 (2250 μg/mouse). Mice were euthanized after 24 h to quantify tumor burden. […] Data depicted in FIGS. 13B and D represent preliminary data performed in a small number of mice. The data provided in Examples 1-4 support the concept that NK cell immune-therapy, ideally performed with KIR-KIRL-mismatched donors, should have a role in the treatment of pediatric BCP-ALL disease.

In the case of “1-7F9: KIR2DL-cross-reactive fully human IgG4 kappa mAb; H chain SEQ ID NO:3, L chain SEQ ID NO:5”, the receptor occupancy (KIR2DL2/3 [1]; 0.2 mg/kg and 2 mg/kg, 28-day period) is listed as “good receptor occupancy throughout the 28-day period”, the “improvement of OS versus <0.3 mg/kg group” value (AML [2]) is listed as about 18 months and the “duration of full (>90%) KIR receptor occupancy” value (KIR receptor; 0.075 mg/kg) is listed as 1 week. For the same compound, the “duration of full (>90%) KIR receptor occupancy” value (KIR receptor; 1 mg/kg) was 2 weeks, the “duration of KIR saturation (>30% KIR occupancy)” value (KIR receptor; 3 mg/kg) was 24-32 weeks and the “duration of full (>90%) KIR receptor occupancy” value (KIR receptor; 3 mg/kg) was “at least 4 weeks”. The “overall survival (OS)” value (AML [3]; 6 AML patients, dosages of 1 and 3 mg/kg) was 29.7 months, the “overall survival (OS)” value (AML [3]; 16 AML patients, <0.3 mg/kg) was 11.8 months and the “reconstitution of cell lysis by NK cells against Cw4-positive targets” value ([4]; WO 2005/003168, Example 4) was “almost completely reconstitutes lysis”. The “potentiation of NK cell cytolytic activity on HLA-Cw3+ and HLA-Cw4+ targets” value ([4]; WO 2005/003168) was “strongly potentiate NK cell cytolytic activity”, the “KIRs bound / recognized” value (KIR2DL1 and KIR2DL2/3 [5]) was “binds specifically to both KIR2DL1 and KIR2DL2/3” and the “binding to KIR2DS4” value (KIR2DS4) was “does not bind to the stimulatory KIR, KIR2DS4; also recorded: none of 1-7F9, lirilumab and 1-4F1 binds to KIR2DS4”. The “binding to KIR2DS3” value (KIR2DS3) was “does not bind to the stimulatory KIR, KIR2DS3”, the “binding to KIR2DS1 and KIR2DS2” value (KIR2DS1 and KIR2DS2) was “bind to KIR2DS1 and KIR2DS2” and the “blocking of binding of group 1 HLA-C (HLA-Cw3) to KIR2DL2/3” value (KIR2DL2/3 [6]) was “blocks”. For the same compound, the IgG4 half-molecule formation [7] was “did not reveal half-molecule formation”.

With `Nc1ncn([C@@H]2O[C@H](CO)[C@@H](O)[C@H]2O)c(=O)n1` [5-aza-cytidine] the “BM cytotoxicity: human and murine CD45+ cells” value (CD45+ cells) was “statistically insignificant reduction; also recorded: does not exert statistically relevant BM cytotoxicity”, the “expression of inhibitory (KIRs, NKG2A) and activating (NKp44, NKG2D) NK cell receptors” value (BM-derived NK cells; BM-derived NK cells of huNSG mice, low doses) was “did not significantly modulate the expression; also recorded: does not significantly alter the expression” and the “numbers of immature NK cell precursors and mature NK cell subsets in BM” value (BM-derived NK cells; huNSG mice, low-dose long-term treatment) was “distinctly higher numbers of both immature and mature NK cell subsets; also recorded: clearly higher numbers; also recorded: induces the expression of BM-residing NK cell precursors”. For the same compound, the half-life [8] was “less than 4 h” and the “direct cytotoxic effect on pediatric BCP-ALL” value (pediatric BCP-ALL) was “largely excluded; also recorded: does not exert relevant direct cytotoxic effects”.

With “lirilumab: 1-7F9(S241P) variant, human IgG4 anti-KIR2DL1/2/3 mAb; H chain SEQ ID NO:4, L chain SEQ ID NO:5” the KIR receptor occupancy (KIR2DL2/3 [1]; 1 mg/kg, over a 28-day period) was about 100%, the “effect of S241P mutation on affinity for KIR2DL1 and KIR2DL2/3” value (KIR2DL1 and KIR2DL2/3 [9]) was “equalizes the affinity for KIR2DL1 and KIR2DL2/3” and the “specificity and affinity of binding to KIR targets” value (KIR2DL1 and KIR2DL2/3 [9]; inferred from identical CDRs and variable regions) was “the same as that exhibited by 1-7F9”. The “effect on cytotoxicity of KIR+ NK cells of KIR-KIRL-matched donors” value (NALM-16 cells) was “distinctly enhanced”, the “effect on cytotoxicity of KIR+ NK cells of KIR-KIRL-mismatched donors” value (NALM-16 cells) was “did not respond to inhibitory KIR blockade” and the “levels of inhibitory KIR expression” value (inhibitory KIR) was “very low levels; also recorded: barely detectable levels”. The “levels of inhibitory KIR expression” value (inhibitory KIR; listed as lirilumab (IPH2102)) was “negligible”, the tumor burden (BCP-ALL sample P23T) was “significant reduction of tumor burden” and the “binding to KIR2DS4” value (KIR2DS4) was “none of 1-7F9, lirilumab and 1-4F1 binds to KIR2DS4”. For the same compound, the “binding to KIR2DS1 and KIR2DS2” value (KIR2DS1 and KIR2DS2) was “bind to KIR2DS1 and KIR2DS2”.
